Data on 15 compounds can be found in patent EP0433759A1, “4-Substituted alkyl carbapenem antibiotics” (Bristol-Myers Squibb Company, priority 1989, dated 1991).

Data set [1] in a line: Chemical stability in aqueous solution (half-life). The note with it: 37°C, 10^-4 M, pH 7.4, aqueous solution; read-out: Half-life (T 1/2) (converted). The class given is physicochemical. As for the experimental part:
These values were determined by the method of Woodward et al, J. Am. Chem. Soc., 102, 2042 (1980)

In data set [2] the test system is Streptococcus pneumoniae, A9585. Kind of data set: In vitro antibacterial activity (MIC), serial 2-fold dilution. Conditions: Streptococcus pneumoniae A9585; Mueller-Hinton; 37°C, 17 h; read-out: Antibacterial Activity MIC S. pn. The class given is cell-based. As for the experimental part:
(§1) In vitro antibacterial activity was determined by serial 2-fold dilution of the compound in Mueller-Hinton agar and inoculation of the agar surface or broth with an appropriately diluted 18-24 h broth culture.

The subject of data set [3] is Pseudomonas aeruginosa, A9843. Described as above. Conditions: Pseudomonas aeruginosa A9843; Mueller-Hinton; 37°C, 17 h; read-out: Antibacterial Activity MIC P. aer. The class given is cell-based. Here is the method:
as §1

For a further data set, the system named is Escherichia coli, A15119. The data set is described as above. The class given is cell-based. Conditions: Escherichia coli A15119; Mueller-Hinton; 37°C, 17 h; read-out: Antibacterial Activity MIC E. coli. Here is the method: as §1
Data set [4] in a line: Solubility in water, observation on the lyophilized product. The data set is classed as physicochemical. The note with it: lyophilized material. Here is the method: A solution of (4R,5S,6S)-4-(4"-aminobutyl)-6-[(1'R)-1'-hydroxyethyl]-3-[(pyridin-4-yl)methylthio]-7-oxo-1-azabicyclo[3.2.0]hept-2-ene-2-carboxylic acid (0.134 g, 0.34 mmol) in 15 mL of cold water (pH 6.4), was adjusted to pH 8.0 with 1 M NaOH. Then 0.170 g (1.36 mmol) of aminoiminomethanesulfonic acid [K. Kim et al., Tet. Lett., 29, 3183 (1988)] was added in small portions over 5 min while maintaining the pH at 8 with 1 M NaOH. Three more portions of aminoiminomethanesulfonic acid (3 x 0.050 g) were added at 30 min intervals and the resulting mixture (some insoluble material) was stirred for a total of 3 h at 0-5 C. The pH was maintained throughout at 8 with 1 M NaOH. Then 15 mL of 0.2M pH 6.0 phosphate buffer was added and the resulting homogeneous solution was chromatographed on reverse phase silica gel (µBondapak C18, 2.5 x 14 cm). Elution with a gradient of acetonitrile (0-10%) in water gave 0.103 g (69%) of the title compound as a white amorphous powder after freeze drying.

Converted amounts (≈) assume the structure as drawn. Structures can show the parent of a compound that is named as a salt.

As a reminder, the MIC is the lowest concentration found to suppress growth.

`C[C@@H](O)[C@H]1C(=O)N2C(C(=O)O)=C(SCCOC(N)=O)[C@H](CCCCNC(=N)N)[C@H]12` [Example 100, (4R.5S,6S)-3-[(2-Carbamoyloxyethyl)thio)-4-(4"-guanidinobutyl)-6-[(1'R)-1'-hydroxyethyl]-7-oxo-1-azabicyclo-[3.2.0]-hept-2-ene-2-carboxylic acid]: in data set [1], the half-life at 100 µM was 10800 min. In addition, the minimum inhibitory concentration (MIC) in data set [2] worked out at 0.25 µg/mL (≈ 0.582 µM); in data set [3], 2 µg/mL (≈ 4.66 µM); with Escherichia coli, A15119, 0.008 µg/mL (≈ 0.0186 µM).

For the compound `C[C@@H](O)[C@H]1C(=O)N2C(C(=O)O)=C(SCCC#N)[C@H](CCN3CCCC3)[C@H]12` [Example 63, (4R,5S,6S)-3-[(2-cyanoethyl)thio]-6-[(1'R)-1'-hydroxyethyl]-4-[2"-(1-pyrrolidinyl)-ethyl]-7-oxo-1-azabicyclo[3.2.0]hept-2-ene-2-carboxylic acid], in data set [1], the half-life at 100 µM was 1080 min. Besides, the minimal inhibitory concentration (MIC) in data set [2] stood at 0.008 µg/mL (≈ 0.0211 µM); in data set [3] it was 1 µg/mL (≈ 2.64 µM); in the data set with Escherichia coli, A15119, 0.016 µg/mL (≈ 0.0422 µM).

Regarding `C[C@@H](O)[C@H]1C(=O)N2C(C(=O)O)=C(SCCC#N)[C@H](CCNC(=N)N)[C@H]12` [Example 73, (4R,5S,6S)-3-[(2-Cyanoethyl)thio]-4-(2"-guanidinoethyl)-6-[(1'R)-1'-hydroxyethyl]-7-oxo-1-azabicyclo[3.2.0]-hept-2-ene-2-carboxylic acid], the half-life at 100 µM in data set [1] was 2220 min. Besides, the minimal inhibitory concentration (MIC) in data set [2] was found to be 0.03 µg/mL (≈ 0.0816 µM); in data set [3] it was 0.25 µg/mL (≈ 0.68 µM); with Escherichia coli, A15119 it was 0.008 µg/mL (≈ 0.0218 µM).

Turning to `C[C@@H](O)[C@H]1C(=O)N2C(C(=O)O)=C(SCCC#N)[C@H](CCCCNC=N)[C@H]12` [Example 19, (4R,5S,6S)-3-[(2-Cyanoethyl)thio]-4-[4"-(N-formimidoyl)-amino-butyl]-6-[(1'R)-1'-hydroxyethyl]-7-oxo-1 - azabicyclo-[3.2.0]hept-2-ene-2-carboxylic acid], in data set [1], the half-life at 100 µM was 7020 min. For the same compound, the MIC was found to be 0.06 µg/mL (≈ 0.158 µM) in data set [2]; 1 µg/mL (≈ 2.63 µM) in data set [3]; 0.004 µg/mL (≈ 0.0105 µM) with Escherichia coli, A15119.

Regarding `C[C@@H](O)[C@H]1C(=O)N2C(C(=O)O)=C(SCCN3CCCC3)[C@H](CCCNC(=N)N)[C@H]12` [Example 127, (4R,5S,6S)-4-(3"-Guanidinopropyl)-6-[(1'R)-1'-hydroxyethyl]3-([2-(1-pyrrolidinyl)ethyllthio)-7-oxo-1-azabicyclo[3.2.0]-hept-2-ene-2-carboxylic acid, acetic acid salt], in data set [1], the half-life at 100 µM was 1860 min. For the same compound, the minimal inhibitory concentration (MIC) stood at 0.06 µg/mL in data set [2]; 1 µg/mL in data set [3]; 0.13 µg/mL with Escherichia coli, A15119.

On to `C[C@@H](O)[C@H]1C(=O)N2C(C(=O)O)=C(SCCCC#N)[C@H](CCN)[C@H]12` [Example 47, (4R,5S,6S)-4-(2"-Aminoethyl)-3-[(3-cyanopropyl)thio]-6-[(1'R)-l'-hydroxyethyl]-7-oxo-1-azabicyclo[3.2.0]hept-2-ene-2-carboxylic acid], for which the half-life at 100 µM in data set [1] is 150 min. Further, the minimum inhibitory concentration (MIC) in data set [2] stood at 0.5 µg/mL (≈ 1.47 µM); in data set [3], 1 µg/mL (≈ 2.95 µM); in the data set with Escherichia coli, A15119, 0.03 µg/mL (≈ 0.0884 µM).

As to `C[C@@H](O)[C@H]1C(=O)N2C(C(=O)O)=C(SCc3ccncc3)[C@H](CCCN)[C@H]12` [Example 44], the half-life at 100 µM in data set [1] is 5340 min. The minimum inhibitory concentration (MIC) in data set [2] worked out at 0.03 µg/mL (≈ 0.0795 µM); in data set [3], 8 µg/mL (≈ 21.2 µM); with Escherichia coli, A15119, 0.03 µg/mL (≈ 0.0795 µM).

Turning to `C[C@@H](O)[C@H]1C(=O)N2C(C(=O)O)=C(SCc3cccnc3)[C@H](CCN)[C@H]12` [Example 24, (4R,5S,6S)-4-(2"-Aminoethyl)-6-[(1'R)-1'-hydroxyethyl]-3-[(pyridin-3-yl)methyithio]-7-oxo-1-azabicyclo[3.2.0]-hept-2-ene-2-carboxylic acid], in data set [1], the half-life at 100 µM is 210 min. Moreover, the minimal inhibitory concentration (MIC) in data set [2] stood at 0.13 µg/mL (≈ 0.358 µM); in data set [3], 1 µg/mL (≈ 2.75 µM); in the data set on Escherichia coli, A15119, 0.016 µg/mL (≈ 0.044 µM).

Turning to `C[C@@H](O)[C@H]1C(=O)N2C(C(=O)O)=C(SCC(=N)N(C)C)[C@H](CCCN)[C@H]12` [Example 130, (4R,5S,6S)-4-(3"-Aminopropyl)-3-[(N,N-dimethylamidinomethyl]thio]-6-[(1'R)-1'-hyroxyethyl]-7-oxo-1-azabicyclo[3.2.0]hept-2-ene-2-carboxylic acid, acetic acid salt], the half-life at 100 µM in data set [1] was 960 min. For the same compound, the minimal inhibitory concentration (MIC) in data set [2] came out at 0.13 µg/mL; in data set [3], 0.06 µg/mL; in the data set with Escherichia coli, A15119, 0.13 µg/mL.

For `C[C@@H](O)[C@H]1C(=O)N2C(C(=O)O)=C(SCCO)[C@H](CCCCN(C)C)[C@H]12` [Example 91, (4R,5S,6S)-4-(4"-N,N-Dimethylaminobutyl)-6-[(1'R)-1'-hydroxyethyl]-3-[(2-hydroxyethyl)thio]-7-oxo-1-azabicyclo-[3.2.0]hept-2-ene-2-carboxylic acid], the half-life at 100 µM in data set [1] was 9000 min. The MIC in data set [2] is 0.5 µg/mL (≈ 1.34 µM); in data set [3], 4 µg/mL (≈ 10.7 µM); with Escherichia coli, A15119, 0.016 µg/mL (≈ 0.043 µM).

For the compound `C[C@@H](O)[C@H]1C(=O)N2C(C(=O)O)=C(SCCC#N)[C@H](CCN3CCN(C)CC3)[C@H]12` [Example 126, (4R,5S,6S)-3-[(2-Cyanoethyl)thio]-6-[(1'R)-1'-hydroxyethyl]-4-[2"(4-methylpiperazine-1-yl)ethyl]-7-oxo-1-azabicyclo[3.2.0]hept-2-ene-2-carboxylic acid], the half-life at 100 µM in data set [1] was 2820 min. The minimum inhibitory concentration (MIC) in data set [2] came to 0.016 µg/mL (≈ 0.0392 µM); in data set [3], 2 µg/mL (≈ 4.9 µM); in the data set on Escherichia coli, A15119, 0.008 µg/mL (≈ 0.0196 µM).

Turning to `C[C@@H](O)[C@H]1C(=O)N2C(C(=O)O)=C(SCCNC(=N)N)[C@H](CCNC(=N)N)[C@H]12` [Example 135, (4R,5S,6S)-4-(2"-Guanidinoethyl)-3-[(2-guanidinoethyl)-thio]-6-[(1'R)-1'-hydroxyethyl]-7-oxo-1-azabicyclo-[3.2.0]hept-2-ene-2-carboxylic acid, acetic acid salt], the half-life at 100 µM in data set [1] is 2220 min. The MIC is 0.03 µg/mL in data set [2]; 0.06 µg/mL in data set [3]; 0.015 µg/mL in the data set with Escherichia coli, A15119.

In the case of `CSC1=C(C(=O)O)N2C(=O)[C@H]([C@@H](C)O)[C@H]2[C@H]1CCCCN` [Example 92, (4R,5S,6S)-4-(4"-Aminobutyl)-6-(1'R)-1'-hydroxyethyl-3-methylthio-7-oxo-1-azabicyclo[3.2.0]hept-2-ene-2-carboxylic acid], the half-life at 100 µM in data set [1] is 14800 min. The MIC in data set [2] was 2 µg/mL (≈ 6.36 µM); in data set [3], 2 µg/mL (≈ 6.36 µM); in the data set on Escherichia coli, A15119, 0.06 µg/mL (≈ 0.191 µM).

For the compound `C[C@@H](O)[C@H]1C(=O)N2C(C(=O)O)=C(SCc3cn(C)nn3)[C@H](CCCNC=N)[C@H]12` [Example 94, (4R.5S,6S)-4-[3"-(N-Formimidoyi)aminopropyi]-6-[(1'R)-1'-hydroxyethyl]-3-[(1-methyl-1,2,3-triazol-4-yl)-methylthio]-7-oxo-1-azabicyclo[3.2.0]hept-ene-2-carboxylic acid], in data set [1], the half-life at 100 µM was 5280 min. The MIC in data set [2] amounted to 0.06 µg/mL (≈ 0.147 µM); in data set [3], 8 µg/mL (≈ 19.6 µM); in the data set on Escherichia coli, A15119 it was 0.008 µg/mL (≈ 0.0196 µM).

As to `C[C@@H](O)[C@H]1C(=O)N2C(C(=O)O)=C(SCc3ccncc3)[C@H](CCCCNC(=N)N)[C@H]12` [Example 78, (4R,5S,6S)-4-(4"-Guanidinobutyl]-6-[(1'R)-1'-hydroxyethyl]-3-[(pyridin-4-yl)methylthio]-7-oxo-1-azabicyclo-[3.2.0]hept-2-ene-2-carboxylic acid], the Solubility in water entry in data set [4] is recorded as “only slightly soluble in water”.
